Drawing on PubChem BioAssay (NCI), this text covers GI50 and TGI for 14 molecules.

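Assay format: 96-well plates, 48-hour exposure. The concentration for 50% growth inhibition is given as GI50. Definition used: TGI = concentration required for complete inhibition of growth.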 A value given as a limit tells only on which side of the number the result lay.

Test in all cases: growth of human tumour cells (NCI), 48 h
The test system of assay [1] is ACHN renal.
In assay [2] the test system is HCT-15 colon.
For assay [3], the system named is KM12 colon.
For assay [4], the system named is OVCAR-4 ovarian.
Assay [5] deals with SF-295 CNS.
For assay [6], the system named is SNB-19 CNS.
Assay [7] has as its system SW-620 colon.
In assay [8] the test system is UACC-62 melanoma.
For assay [9], the system named is NCI-H522 lung.
The subject of assay [10] is RPMI-8226 leukemia.

With `C=C(C)[C@@H]1CC[C@]2(C(=O)Nc3ccccn3)CC[C@]3(C)[C@H](CC[C@@H]4[C@@]5(C)CCCNC(C)(C)[C@@H]5CC[C@]43C)[C@@H]12`, the GI50 in assay [1] was 2.08 µM; in assay [2], 1.61 µM; in assay [3] it was 1.82 µM; in assay [4], 1.44 µM; in assay [5], 1.68 µM; in assay [6], 1.98 µM. Also, the GI50 is 1.75 µM in [7] and 1.64 µM in assay [8]. The TGI came to 4.64 µM in [1]; 3.09 µM in [2]; 3.36 µM in [3]; 2.99 µM in assay [4]; 3.07 µM in [5]; 4.26 µM in assay [6]. The figures for the TGI in assay [7] and in [8] were 3.51 µM and 3.12 µM, respectively.

For `Nc1ccc(OCC(O)N2C(=O)c3ccccc3C2=O)cc1` (stereo not drawn), the TGI in assay [1], in assay [2], in assay [9], in assay [4], in assay [10] and in assay [5] was above 100 µM each time. Moreover, the TGI in assay [6], in assay [7] and in assay [8] was above 100 µM in each case.

As to `COc1ccc2c(c1)CCC(CN1CCN(CCOC(c3ccc(F)cc3)c3ccc(F)cc3)CC1)C2O` (stereo not drawn), the TGI was 19.8 µM in assay [1]; 22.3 µM in assay [2]; 63.2 µM in assay [3]; 28.6 µM in assay [9]; 32.9 µM in [4]; 35.4 µM in assay [10]. Besides, the TGI in [5] is 34.5 µM; in assay [6], 31.5 µM; in assay [7] it was above 100 µM; in assay [8], 24.2 µM.

Consider `COc1ccc2[nH]c3c([N+](=O)[O-])ccc(Cl)c3c(=O)c2c1`, for which the TGI was 29.3 µM in [1]; 40.8 µM in assay [2]; above 73.4 µM in assay [3]; 36.9 µM in [9]; 28.7 µM in [4]; 45.4 µM in assay [10]. Further, the TGI in assay [5] is above 100 µM; in assay [6], above 80.9 µM; in [7], 42.8 µM; in assay [8], 34.5 µM.

On to `CC(C)(C)C1(c2ccc(C3(c4ccccc4)Oc4ccccc4S3)[nH]2)Oc2ccccc2S1` (stereo not drawn), for which the TGI in [1], in assay [2], in [9], in assay [10], in assay [5] and in [6] was above 100 µM each time. The TGI in assay [7] and in assay [8] was above 100 µM in each case.

For the molecule `C=C1CC23CCC4C(C)(C(=O)O)CCCC4(C)C2CCC1C3` (stereo not drawn), the TGI in assay [1] was above 100 µM; in [2], above 100 µM; in [3], above 100 µM; in [9], 89.7 µM; in assay [4] it was above 100 µM; in assay [10] it was 91.6 µM. Besides, the TGI in assay [5], in assay [6], in [7] and in [8] was above 100 µM throughout.

For `Cc1ccc(P(c2ccc(C)cc2)c2ccc(C)cc2)cc1`, the TGI was above 100 µM in [1]; above 100 µM in assay [2]; 60.9 µM in assay [3]; 28.2 µM in assay [9]; 80.3 µM in assay [4]; 34.6 µM in [10]. For the same molecule, the TGI in assay [5] was above 100 µM; in assay [6] it was above 100 µM; in assay [7] it was above 100 µM; in assay [8], 52.3 µM.

With `COC1/C=C\OC2(C)Oc3c(C)c(O)c4c(O)c(c(/C=N\OCCCc5ccccc5)c(O)c4c3C2=O)NC(=O)/C(C)=C\C=C/C(C)C(O)C(C)C(O)C(C)C(OC(C)=O)C1C` (stereo not drawn), the TGI in assay [1] was determined as 7.39 µM; in assay [2], 11 µM; in assay [3], 14 µM; in assay [9] it was 10.7 µM; in [4], 12.6 µM; in assay [5], 16.3 µM. Also, the TGI in assay [6] is 19.7 µM; in assay [7], 18 µM; in assay [8], 10.1 µM.

For the molecule `O=Nc1ccc(O)c2ncccc12`, the TGI is 14.5 µM in [1]; 12.9 µM in [2]; 20.4 µM in assay [3]; 3.58 µM in [9]; 24.1 µM in assay [4]; 99.8 µM in assay [10]. Moreover, the TGI turned out to be 36 µM in assay [5], 74.7 µM in assay [6], 18.2 µM in assay [7] and 2.34 µM in [8].

`C=C1C(=O)CCC1C(=O)O` (stereo not drawn): the TGI in assay [1], in assay [2], in assay [3], in assay [9], in [4] and in assay [10] was above 100 µM in each case. Besides, the TGI in assay [5], in [6], in [7] and in assay [8] was above 100 µM each time.

In the case of `C[C@H](C(=O)N[C@@H](Cc1ccc(-c2ccccc2)cc1)C(=O)NC1CC(C)(C)N(C)C(C)(C)C1)c1ccc(-c2ccccc2)c(F)c1`, the GI50 in [1] is 1.62 µM; in assay [2], 1.53 µM; in assay [4] it was 0.818 µM; in assay [8], 1.92 µM. Besides, the TGI in assay [1] is 3.05 µM; in [2] it was 2.94 µM; in [4] it was 2.84 µM; in assay [8] it was 3.63 µM.

For `C=C(C)C1CC2=C(O1)C(=O)c1ccccc1C2=O` (stereo not drawn), the TGI in assay [2] is 33.2 µM; in [3] it was 33.4 µM; in [9], 39.4 µM; in assay [4], 24 µM; in assay [10], 44.5 µM; in assay [6], 96.6 µM. The figures for the TGI in assay [7] and in assay [8] were 48.4 µM and 30.4 µM, respectively.

For `Nc1nc(N)c2ncn(-c3ccc(Cl)c(Cl)c3)c2n1`, the TGI in [1] is above 100 µM; in assay [2], above 100 µM; in [3], 97.5 µM; in [9] it was above 100 µM; in [4] it was above 100 µM; in assay [10], 75.2 µM. For the same molecule, the TGI in assay [5] is 69.6 µM; in assay [6] it was above 100 µM; in assay [7], above 100 µM; in assay [8], 43 µM.

Take `O=[N+]([O-])c1ccc(/C=N\Nc2ccc([N+](=O)[O-])cn2)cc1`: the TGI in [1], in assay [2], in assay [3], in [9], in assay [4] and in assay [10] was above 100 µM throughout. Moreover, the TGI in assay [5], in [6], in assay [7] and in assay [8] was above 100 µM in each case.
